Results published in patent US10758534B2 (Vertex Pharmaceuticals Incorporated, priority 2014, dated 2020).

Biological target: T1, F508del (Homo sapiens, UniProt P13569, DEL508-508)
T1 construct: expressed in transfected cells
Experiment: Protocol 2: FRET membrane potential optical assay (VIPR), identification of correction compounds
Assay type: cell-based
Conditions: F508del CFTR modulator activity; compounds of Table 1; read-out: EC30
How it was run: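 Mouse NIH3T3 cells, stable F508del; cpd 16 hrs, 37° C., serum-free; pos ctrl 27° C. 16 hrs. Rinse in Krebs Ringers, dye load, then add 10 μM forskolin + 20 μM genistein with Cl^−-free (gluconate) medium; depolarization by FRET voltage dyes.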

T1 sequence (P13569 with tags, fused parts or gaps DEL508-508): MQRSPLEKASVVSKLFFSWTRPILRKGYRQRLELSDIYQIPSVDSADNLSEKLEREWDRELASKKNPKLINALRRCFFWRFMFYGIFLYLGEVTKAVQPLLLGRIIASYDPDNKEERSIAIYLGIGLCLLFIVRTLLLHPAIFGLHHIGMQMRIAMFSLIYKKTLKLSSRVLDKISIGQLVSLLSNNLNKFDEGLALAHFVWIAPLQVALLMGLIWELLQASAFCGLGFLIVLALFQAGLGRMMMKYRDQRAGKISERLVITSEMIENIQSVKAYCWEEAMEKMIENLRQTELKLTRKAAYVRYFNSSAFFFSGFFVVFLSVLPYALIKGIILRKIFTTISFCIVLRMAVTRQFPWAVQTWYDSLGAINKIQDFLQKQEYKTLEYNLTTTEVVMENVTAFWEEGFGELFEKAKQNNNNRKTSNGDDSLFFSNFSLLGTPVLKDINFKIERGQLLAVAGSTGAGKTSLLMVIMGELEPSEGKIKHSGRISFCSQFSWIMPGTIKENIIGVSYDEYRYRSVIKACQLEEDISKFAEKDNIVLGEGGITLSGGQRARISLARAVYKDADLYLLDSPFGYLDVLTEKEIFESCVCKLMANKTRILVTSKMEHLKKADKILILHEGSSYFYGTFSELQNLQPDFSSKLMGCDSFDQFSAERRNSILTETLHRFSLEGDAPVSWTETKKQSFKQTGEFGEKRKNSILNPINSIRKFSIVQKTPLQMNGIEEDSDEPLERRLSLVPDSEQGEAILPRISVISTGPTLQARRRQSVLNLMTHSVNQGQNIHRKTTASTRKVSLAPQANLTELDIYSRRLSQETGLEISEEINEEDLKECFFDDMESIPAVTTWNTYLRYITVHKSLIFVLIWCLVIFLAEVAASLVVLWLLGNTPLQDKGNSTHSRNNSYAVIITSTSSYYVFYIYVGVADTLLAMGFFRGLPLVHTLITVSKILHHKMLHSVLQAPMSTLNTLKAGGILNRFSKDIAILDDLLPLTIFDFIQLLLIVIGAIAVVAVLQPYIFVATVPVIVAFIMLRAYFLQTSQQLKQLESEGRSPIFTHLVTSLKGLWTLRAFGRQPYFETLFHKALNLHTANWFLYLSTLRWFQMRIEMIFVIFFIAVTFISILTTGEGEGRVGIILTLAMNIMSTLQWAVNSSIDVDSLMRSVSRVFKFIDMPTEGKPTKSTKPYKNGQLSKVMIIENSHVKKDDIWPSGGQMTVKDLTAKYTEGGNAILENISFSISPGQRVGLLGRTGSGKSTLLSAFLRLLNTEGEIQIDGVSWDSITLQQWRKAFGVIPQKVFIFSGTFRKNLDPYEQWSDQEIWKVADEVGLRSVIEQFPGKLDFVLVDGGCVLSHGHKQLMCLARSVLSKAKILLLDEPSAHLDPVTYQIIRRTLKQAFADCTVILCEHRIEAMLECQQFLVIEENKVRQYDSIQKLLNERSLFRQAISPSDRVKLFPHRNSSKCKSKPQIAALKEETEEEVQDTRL

Row | Structure (SMILES) | EC30 [nM]
1 | CC(C)COc1ccn(-c2ccc(C(=O)NS(=O)(=O)c3cccnc3N)c(N3C[C@@H](C)CC3(C)C)n2)n1 [Compound 2191, N-[(2-amino-3-pyridyl)sulfonyl]-6-(3-isobutoxypyrazol-1-yl)-2-[(4S)-2,2,4-trimethylpyrrolidin-1-yl]pyridine-3-carboxamide] | < 3000
2 | CC1CN(c2ncccc2C(=O)NS(=O)(=O)c2cccc(Nc3ccc4c(ccn4C)c3)n2)C(C)(C)C1 (stereo not drawn) [Compound 2193, N—[[6-[(1-methylindol-5-yl)amino]-2-pyridyl]sulfonyl]-2-(2,2,4-trimethylpyrrolidin-1-yl)pyridine-3-carboxamide] | < 3000
3 | CCCC(C)Nc1cccc(S(=O)(=O)NC(=O)c2cccnc2N2CC(C)CC2(C)C)n1 (stereo not drawn) [Compound 2197, N—[[6-(1-methylbutylamino)-2-pyridyl]sulfonyl]-2-(2,2,4-trimethylpyrrolidin-1-yl)pyridine-3-carboxamide] | < 3000
4 | Cc1c(F)cccc1-c1ccc(C(=O)NS(=O)(=O)N2CC[C@H](N)C2)c(N2C[C@@H](C)CC2(C)C)n1 [Compound 2199, N-[(3S)-3-aminopyrrolidin-1-yl]sulfonyl-6-(3-fluoro-2-methyl-phenyl)-2-[(4S)-2,2,4-trimethylpyrrolidin-1-yl]pyridine-3-carboxamide] | 3000 to 10000
5 | CC1CN(c2ncccc2C(=O)NS(=O)(=O)c2cccc(NC(C)C)n2)C(C)(C)C1 (stereo not drawn) [Compound 2200, N—[[6-(isopropylamino)-2-pyridyl]sulfonyl]-2-(2,2,4-trimethylpyrrolidin-1-yl)pyridine-3-carboxamide] | 3000 to 10000
6 | CC(C)COc1cc(F)cc(-c2ccc(C(=O)NS(=O)(=O)c3cccc(N)n3)c(N3CC(C(C)C)CC3(C)C)n2)c1 (stereo not drawn) [Compound 2201, N-[(6-amino-2-pyridyl)sulfonyl]-6-(3-fluoro-5-isobutoxy-phenyl)-2-(4-isopropyl-2,2-dimethyl-pyrrolidin-1-yl)pyridine-3-carboxamide] | < 3000
7 | CC1CN(c2ncccc2C(=O)NS(=O)(=O)c2cccc(NC3CCCCCCC3)n2)C(C)(C)C1 (stereo not drawn) [Compound 2202, N—[[6-(cyclooctylamino)-2-pyridyl]sulfonyl]-2-(2,2,4-trimethylpyrrolidin-1-yl)pyridine-3-carboxamide] | < 3000
8 | CC(C)COc1cc(F)cc(-c2ccc(C(=O)NS(=O)(=O)c3cccc(N)n3)c(N3CCC[C@H]3C(=O)OC(C)(C)C)n2)c1 [Compound 2204, tert-butyl (2S)-1-[3-[(6-amino-2-pyridyl)sulfonylcarbamoyl]-6-(3-fluoro-5-isobutoxy-phenyl)-2-pyridyl]pyrrolidine-2-carboxylate] | < 3000
9 | CC1CN(c2ncccc2C(=O)NS(=O)(=O)c2cccc(N3CCN(c4ccccc4)CC3)n2)C(C)(C)C1 (stereo not drawn) [Compound 2208, N—[[6-(4-phenylpiperazin-1-yl)-2-pyridyl]sulfonyl]-2-(2,2,4-trimethylpyrrolidin-1-yl)pyridine-3-carboxamide] | < 3000
10 | CC(C)COc1cc(F)cc(-c2ccc(C(=O)NS(=O)(=O)N3CC(N)CC(F)(F)C3)c(N3C[C@@H](C)CC3(C)C)n2)c1 (stereo partly drawn) [Compound 2209, N-[(5-amino-3,3-difluoro-1-piperidyl)sulfonyl]-6-(3-fluoro-5-isobutoxy-phenyl)-2-[(4S)-2,2,4-trimethylpyrrolidin-1-yl]pyridine-3-carboxamide] | < 3000
11 | CC1CN(c2ncccc2C(=O)NS(=O)(=O)c2cccc(OC3CCC4CCCCC4C3)n2)C(C)(C)C1 (stereo not drawn) [Compound 2211, N-[(6-decalin-2-yloxy-2-pyridyl)sulfonyl]-2-(2,2,4-trimethylpyrrolidin-1-yl)pyridine-3-carboxamide] | < 3000
12 | CC(Oc1nc(N2C[C@@H](C)CC2(C)C)c(C(=O)NS(=O)(=O)c2cccc(N)n2)cc1F)c1ccncc1 (stereo partly drawn) [Compound 2212, N-[(6-amino-2-pyridyl)sulfonyl]-5-fluoro-6-[1-(4-pyridyl)ethoxy]-2-[(4S)-2,2,4-trimethylpyrrolidin-1-yl]pyridine-3-carboxamide] | 3000 to 10000
13 | CC(C)COc1cc(F)cc(-c2ccc(C(=O)NS(=O)(=O)c3cccc(N)n3)c(N3CCC[C@@H]3C(=O)OC(C)(C)C)n2)c1 [Compound 2216, tert-butyl (2R)-1-[3-[(6-amino-2-pyridyl)sulfonylcarbamoyl]-6-(3-fluoro-5-isobutoxy-phenyl)-2-pyridyl]pyrrolidin-2-carboxylate] | < 3000
14 | CC1CN(c2ncccc2C(=O)NS(=O)(=O)c2cccc(NC3CCCCC3C)n2)C(C)(C)C1 (stereo not drawn) [Compound 2218, N—[[6-[(2-methylcyclohexyl)amino]-2-pyridyl]sulfonyl]-2-(2,2,4-trimethylpyrrolidin-1-yl)pyridine-3-carboxamide] | < 3000
15 | C[C@@H]1CN(c2nc(-c3cccc(C(F)(F)F)c3)ccc2C(=O)NS(=O)(=O)N2CC[C@H](N)C2)C(C)(C)C1 [Compound 2220, N-[(3S)-3-aminopyrrolidin-1-yl]sulfonyl-6-[3-(trifluoromethyl)phenyl]-2-[(4S)-2,2,4-trimethylpyrrolidin-1-yl]pyridine-3-carboxamide] | 3000 to 10000

Next, values leading:

Row | EC30 [nM] | Structure (SMILES)
16 | < 3000 | CC(CO)COc1ccn(-c2ccc(C(=O)NS(=O)(=O)c3cccnc3N)c(N3C[C@@H](C)CC3(C)C)n2)n1 (stereo partly drawn) [Compound 2192, N-[(2-amino-3-pyridyl)sulfonyl]-6-[3-(3-hydroxy-2-methyl-propoxy)pyrazol-1-yl]-2-[(4S)-2,2,4-trimethylpyrrolidin-1-yl]pyridine-3-carboxamide]
17 | < 3000 | COc1ccc(OC)c(-c2ccc(C(=O)NS(=O)(=O)c3cccnc3N)c(N3C[C@@H](C)CC3(C)C)n2)c1 [Compound 2195, N-[(2-amino-3-pyridyl)sulfonyl]-6-(2,5-dimethoxyphenyl)-2-[(4S)-2,2,4-trimethylpyrrolidin-1-yl]pyridine-3-carboxamide]
18 | < 3000 | COc1ccc2nc(N3C[C@@H](C)CC3(C)C)c(C(=O)NS(=O)(=O)c3cccc(N)n3)cc2c1 [Compound 2196, N-[(6-amino-2-pyridyl)sulfonyl]-6-methoxy-2-[(4S)-2,2,4-trimethylpyrrolidin-1-yl]quinoline-3-carboxamide]
19 | < 3000 | Cc1nc2cc(Nc3cccc(S(=O)(=O)NC(=O)c4cccnc4N4CC(C)CC4(C)C)n3)ccc2s1 (stereo not drawn) [Compound 2198, N—[[6-[(2-methyl-1,3-benzothiazol-5-yl)amino]-2-pyridyl]sulfonyl]-2-(2,2,4-trimethylpyrrolidin-1-yl)pyridine-3-carboxamide]
20 | < 3000 | Cc1cccc(-c2ccc(C(=O)NS(=O)(=O)c3cccc(N)n3)c(N3C[C@@H](C)CC3(C)C)n2)c1O [Compound 2203, N-[(6-amino-2-pyridyl)sulfonyl]-6-(2-hydroxy-3-methyl-phenyl)-2-[(4S)-2,2,4-trimethylpyrrolidin-1-yl]pyridine-3-carboxamide]
21 | < 3000 | Cc1ccc(F)c(-c2ccc(C(=O)NS(=O)(=O)c3cccnc3N)c(N3C[C@@H](C)CC3(C)C)n2)c1 [Compound 2205, N-[(2-amino-3-pyridyl)sulfonyl]-6-(2-fluoro-5-methyl-phenyl)-2-[(4S)-2,2,4-trimethylpyrrolidin-1-yl]pyridine-3-carboxamide]
22 | < 3000 | CC1CN(c2ncccc2C(=O)NS(=O)(=O)c2cccc(NCCOc3ccccc3)n2)C(C)(C)C1 (stereo not drawn) [Compound 2206, N—[[6-(2-phenoxyethylamino)-2-pyridyl]sulfonyl]-2-(2,2,4-trimethylpyrrolidin-1-yl)pyridine-3-carboxamide]
23 | < 3000 | CCOc1ccc(-c2ccc(C(=O)NS(=O)(=O)c3ccc[nH]c3=O)c(N3C[C@@H](C)CC3(C)C)n2)cc1 [Compound 2207, 6-(4-ethoxyphenyl)-N-[(2-oxo-1H-pyridin-3-yl)sulfonyl]-2-[(4S)-2,2,4-trimethylpyrrolidin-1-yl]pyridine-3-carboxamide]
24 | < 3000 | CC1CN(c2ncc(-c3cc(OC(C)C)ccc3Cl)cc2C(=O)NS(=O)(=O)c2cccc(N)n2)C(C)(C)C1 (stereo not drawn) [Compound 2210, N-[(6-amino-2-pyridyl)sulfonyl]-5-(2-chloro-5-isopropoxy-phenyl)-2-(2,2,4-trimethylpyrrolidin-1-yl)pyridine-3-carboxamide]
25 | < 3000 | CCOc1ccc(Nc2cccc(S(=O)(=O)NC(=O)c3cccnc3N3CC(C)CC3(C)C)n2)cc1 (stereo not drawn) [Compound 2214, N—[[6-(4-ethoxyanilino)-2-pyridyl]sulfonyl]-2-(2,2,4-trimethylpyrrolidin-1-yl)pyridine-3-carboxamide]
26 | 3000 to 10000 | Cc1noc(C)c1-c1ccc(C(=O)NS(=O)(=O)c2cccnc2N)c(N2C[C@@H](C)CC2(C)C)n1 [Compound 2215, N-[(2-amino-3-pyridyl)sulfonyl]-6-(3,5-dimethylisoxazol-4-yl)-2-[(4S)-2,2,4-trimethylpyrrolidin-1-yl]pyridine-3-carboxamide]
27 | < 3000 | CC1CN(c2ncccc2C(=O)NS(=O)(=O)c2cccc(Nc3ccc(Cl)cc3Cl)n2)C(C)(C)C1 (stereo not drawn) [Compound 2217, N—[[6-(2,4-dichloroanilino)-2-pyridyl]sulfonyl]-2-(2,2,4-trimethylpyrrolidin-1-yl)pyridine-3-carboxamide]
28 | 3000 to 10000 | COc1ccc(-c2ccc(C(=O)NS(=O)(=O)c3ccc[nH]c3=O)c(N3C[C@@H](C)CC3(C)C)n2)cc1F [Compound 2219, 6-(3-fluoro-4-methoxy-phenyl)-N-[(2-oxo-1H-pyridin-3-yl)sulfonyl]-2-[(4S)-2,2,4-trimethylpyrrolidin-1-yl]pyridine-3-carboxamide]
29 | 3000 to 10000 | CCC(COC)Nc1cccc(S(=O)(=O)NC(=O)c2cccnc2N2CC(C)CC2(C)C)n1 (stereo not drawn) [Compound 2221, N—[[6-[1-(methoxymethyl)propylamino]-2-pyridyl]sulfonyl]-2-(2,2,4-trimethylpyrrolidin-1-yl)pyridine-3-carboxamide]
30 | 3000 to 10000 | COc1cccc(-c2ccc(C(=O)NS(=O)(=O)c3ccc[nH]c3=O)c(N3C[C@@H](C)CC3(C)C)n2)c1F [Compound 2222, 6-(2-fluoro-3-methoxy-phenyl)-N-[(2-oxo-1H-pyridin-3-yl)sulfonyl]-2-[(4S)-2,2,4-trimethylpyrrolidin-1-yl]pyridine-3-carboxamide]
